Measurements published in ChEMBL document CHEMBL1201862, “PubChem BioAssay data set” (2004).
Calls of active or inactive are those of the source.

How the values were obtained:
[1] = target: Peroxisome proliferator-activated receptor gamma/Nuclear receptor coactivator 1 (Homo sapiens, UniProt P37231); format: functional;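 also: agonist potency as compounds enhance coactivator SRC-1 recruitment to PPARgamma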
[2] = target: Peroxisome proliferator-activated receptor gamma/Nuclear receptor coactivator 3 (Homo sapiens, UniProt P37231); format: functional;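 also: agonist potency for raising coactivator recruitment to the receptor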
[3] = target: Peroxisome proliferator-activated receptor gamma/Nuclear receptor coactivator 2 (Homo sapiens, UniProt P37231); format: functional;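 also: agonist potency for raising coactivator recruitment to the receptor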
[4] = enhancers of respiration in Yfh1-depleted yeast, dose response, Friedreich's ataxia, plus single-dose screen (AID 1465); format: functional;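 also: yeast depleted of Yfh1p frataxin homolog grown on glycerol needing respiration; WST-1 tetrazolium dye reduction as measure of cellular dehydrogenase metabolic activity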
[5] = target: Induced myeloid leukemia cell differentiation protein Mcl-1 (Homo sapiens, UniProt Q07820); format: functional
Sequence of Induced myeloid leukemia cell differentiation protein Mcl-1 (Q07820 whole entry): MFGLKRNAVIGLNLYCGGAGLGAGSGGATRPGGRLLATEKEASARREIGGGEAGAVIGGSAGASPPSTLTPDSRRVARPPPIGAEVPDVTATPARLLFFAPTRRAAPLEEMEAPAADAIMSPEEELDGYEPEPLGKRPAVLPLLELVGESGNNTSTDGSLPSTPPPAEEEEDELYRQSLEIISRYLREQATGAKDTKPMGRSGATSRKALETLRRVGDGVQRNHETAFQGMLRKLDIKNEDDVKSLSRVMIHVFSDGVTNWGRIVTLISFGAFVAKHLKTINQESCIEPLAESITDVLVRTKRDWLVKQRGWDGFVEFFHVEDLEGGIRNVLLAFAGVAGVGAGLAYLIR

Protein Tat = target: T1, Protein Tat (Human immunodeficiency virus type 1 group M subtype B (isolate HXB2)(HIV-1), UniProt P04608); format: functional;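 also: tat binding to TAR RNA read out by fluorescence polarization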
T1 sequence (P04608 whole entry): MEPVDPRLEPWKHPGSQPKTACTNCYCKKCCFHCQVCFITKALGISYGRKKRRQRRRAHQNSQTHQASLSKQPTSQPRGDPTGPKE

NS3 = NS3 (Hepatitis C virus, UniProt A3EZJ3); assay: PubChem AID 2173; parameters: species or system Hepacivirus hominis
Sequence of NS3 (A3EZJ3 whole entry): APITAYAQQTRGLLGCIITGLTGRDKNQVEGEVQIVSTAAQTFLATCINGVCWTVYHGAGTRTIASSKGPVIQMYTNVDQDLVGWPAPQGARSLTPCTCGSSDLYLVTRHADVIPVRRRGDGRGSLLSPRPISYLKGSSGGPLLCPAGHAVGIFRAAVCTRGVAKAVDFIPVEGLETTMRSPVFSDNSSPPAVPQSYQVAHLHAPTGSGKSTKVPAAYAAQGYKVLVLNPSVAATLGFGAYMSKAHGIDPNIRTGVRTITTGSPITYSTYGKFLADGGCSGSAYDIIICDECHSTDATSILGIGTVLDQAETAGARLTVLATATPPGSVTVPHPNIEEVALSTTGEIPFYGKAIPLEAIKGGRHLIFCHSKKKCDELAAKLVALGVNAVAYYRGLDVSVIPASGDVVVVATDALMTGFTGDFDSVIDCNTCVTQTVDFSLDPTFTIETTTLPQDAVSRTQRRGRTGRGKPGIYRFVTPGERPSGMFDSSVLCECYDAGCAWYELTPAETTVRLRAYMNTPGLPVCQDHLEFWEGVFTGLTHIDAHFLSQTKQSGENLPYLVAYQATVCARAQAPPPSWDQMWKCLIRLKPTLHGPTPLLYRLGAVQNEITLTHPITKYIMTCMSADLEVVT

Procathepsin L = Procathepsin L (Homo sapiens, UniProt P07711)
Sequence of Procathepsin L (P07711 whole entry): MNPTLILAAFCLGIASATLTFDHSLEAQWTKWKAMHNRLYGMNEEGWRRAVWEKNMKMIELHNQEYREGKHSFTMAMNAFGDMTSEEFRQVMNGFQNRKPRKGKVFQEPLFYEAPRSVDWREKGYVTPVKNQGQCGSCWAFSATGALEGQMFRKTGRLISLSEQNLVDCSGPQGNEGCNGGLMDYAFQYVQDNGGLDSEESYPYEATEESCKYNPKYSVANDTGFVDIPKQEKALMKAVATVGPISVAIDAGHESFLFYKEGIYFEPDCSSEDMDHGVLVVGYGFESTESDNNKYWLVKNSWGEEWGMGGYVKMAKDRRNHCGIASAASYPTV

Aspartyl aminopeptidase = target: T2, Aspartyl aminopeptidase (Plasmodium falciparum 3D7, UniProt Q8I2J3)
T2 sequence (Q8I2J3 whole entry): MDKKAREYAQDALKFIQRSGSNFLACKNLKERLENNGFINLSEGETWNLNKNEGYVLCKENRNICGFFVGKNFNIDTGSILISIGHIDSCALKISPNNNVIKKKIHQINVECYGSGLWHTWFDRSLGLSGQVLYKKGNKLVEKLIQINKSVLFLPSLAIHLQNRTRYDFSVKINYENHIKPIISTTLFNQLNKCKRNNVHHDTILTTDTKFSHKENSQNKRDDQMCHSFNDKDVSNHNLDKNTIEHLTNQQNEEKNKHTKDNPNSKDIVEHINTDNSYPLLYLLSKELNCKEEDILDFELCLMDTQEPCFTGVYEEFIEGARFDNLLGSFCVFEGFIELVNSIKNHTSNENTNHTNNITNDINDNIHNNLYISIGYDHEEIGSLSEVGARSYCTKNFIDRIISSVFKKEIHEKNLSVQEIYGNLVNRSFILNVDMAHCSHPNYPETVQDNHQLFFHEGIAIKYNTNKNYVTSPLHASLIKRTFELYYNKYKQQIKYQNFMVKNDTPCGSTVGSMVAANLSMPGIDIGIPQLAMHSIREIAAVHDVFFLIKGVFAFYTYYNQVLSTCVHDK

[6] = target: Transitional endoplasmic reticulum ATPase (Homo sapiens, UniProt P55072, C522A); assay: C522A mutant p97 ATPase inhibitors, dose response, counter-screen for p97 inhibitor project, biochemical, luminescence (AID 1544)
Sequence of Transitional endoplasmic reticulum ATPase (Homo sapiens, UniProt P55072, C522A) (P55072 2-806 C522A limits assumed): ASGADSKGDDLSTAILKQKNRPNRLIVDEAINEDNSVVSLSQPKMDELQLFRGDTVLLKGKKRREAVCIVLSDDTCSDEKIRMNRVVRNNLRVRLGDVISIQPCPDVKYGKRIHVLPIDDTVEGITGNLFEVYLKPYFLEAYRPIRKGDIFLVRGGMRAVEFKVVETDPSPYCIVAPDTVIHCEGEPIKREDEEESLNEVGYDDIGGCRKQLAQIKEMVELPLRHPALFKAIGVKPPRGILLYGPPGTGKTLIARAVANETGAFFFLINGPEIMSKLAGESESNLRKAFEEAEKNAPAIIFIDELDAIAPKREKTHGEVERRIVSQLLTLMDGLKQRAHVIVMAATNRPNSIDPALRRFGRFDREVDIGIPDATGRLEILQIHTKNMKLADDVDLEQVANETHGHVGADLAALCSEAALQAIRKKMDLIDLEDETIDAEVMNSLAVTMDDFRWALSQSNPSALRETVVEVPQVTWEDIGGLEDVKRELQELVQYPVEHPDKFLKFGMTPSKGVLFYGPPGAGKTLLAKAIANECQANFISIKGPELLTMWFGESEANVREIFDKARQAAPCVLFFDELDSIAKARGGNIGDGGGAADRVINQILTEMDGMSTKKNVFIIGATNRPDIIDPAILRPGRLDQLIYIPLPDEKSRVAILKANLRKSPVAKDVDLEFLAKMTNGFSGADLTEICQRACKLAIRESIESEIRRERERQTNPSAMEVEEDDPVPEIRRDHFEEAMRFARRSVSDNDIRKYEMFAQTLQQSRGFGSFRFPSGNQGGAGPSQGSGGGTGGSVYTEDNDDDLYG

[7] = target: Transitional endoplasmic reticulum ATPase (Homo sapiens, UniProt P55072); assay: p97 ATPase inhibitors, dose response, biochemical (AID 1534)
Sequence of Transitional endoplasmic reticulum ATPase (Homo sapiens, UniProt P55072) (P55072 whole entry): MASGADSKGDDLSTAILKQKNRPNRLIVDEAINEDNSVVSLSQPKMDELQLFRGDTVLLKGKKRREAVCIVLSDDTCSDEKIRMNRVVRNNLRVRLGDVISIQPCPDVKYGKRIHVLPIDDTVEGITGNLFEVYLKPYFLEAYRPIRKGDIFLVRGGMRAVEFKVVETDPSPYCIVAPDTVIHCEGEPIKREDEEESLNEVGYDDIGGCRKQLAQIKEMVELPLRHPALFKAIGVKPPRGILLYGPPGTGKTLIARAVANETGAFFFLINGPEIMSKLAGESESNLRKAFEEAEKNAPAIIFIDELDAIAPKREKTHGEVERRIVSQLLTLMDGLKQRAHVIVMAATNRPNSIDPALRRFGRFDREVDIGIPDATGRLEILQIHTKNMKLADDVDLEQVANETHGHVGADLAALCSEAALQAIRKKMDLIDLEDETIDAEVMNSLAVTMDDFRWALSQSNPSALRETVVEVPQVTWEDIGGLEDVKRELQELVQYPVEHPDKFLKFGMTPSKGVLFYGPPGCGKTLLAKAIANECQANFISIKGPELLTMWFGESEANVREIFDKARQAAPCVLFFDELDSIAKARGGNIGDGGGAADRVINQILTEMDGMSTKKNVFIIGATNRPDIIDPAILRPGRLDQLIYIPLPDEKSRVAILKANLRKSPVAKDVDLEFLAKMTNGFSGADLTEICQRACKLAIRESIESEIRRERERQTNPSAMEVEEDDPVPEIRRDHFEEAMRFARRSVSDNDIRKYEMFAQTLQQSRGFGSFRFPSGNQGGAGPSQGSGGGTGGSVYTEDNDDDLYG

SUMO-activating enzyme [8] = target: T3, SUMO-activating enzyme (Homo sapiens, UniProt Q9UBT2); assay: inhibitors of in vitro SUMOylation cascade, primary screen, biochemical, HTRF, uHTS (AID 2006); format: protein-complex assay
T3 sequence (Q9UBE0 whole entry): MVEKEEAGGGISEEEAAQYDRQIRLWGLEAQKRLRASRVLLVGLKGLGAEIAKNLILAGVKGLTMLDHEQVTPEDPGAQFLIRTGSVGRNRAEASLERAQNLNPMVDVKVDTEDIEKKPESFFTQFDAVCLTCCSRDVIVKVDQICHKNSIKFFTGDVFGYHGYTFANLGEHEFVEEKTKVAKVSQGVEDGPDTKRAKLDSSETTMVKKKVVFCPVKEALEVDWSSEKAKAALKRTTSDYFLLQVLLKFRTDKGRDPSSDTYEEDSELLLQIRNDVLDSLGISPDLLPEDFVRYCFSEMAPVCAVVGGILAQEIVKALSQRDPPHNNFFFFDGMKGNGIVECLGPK
T3 sequence (Q9UBT2 whole entry): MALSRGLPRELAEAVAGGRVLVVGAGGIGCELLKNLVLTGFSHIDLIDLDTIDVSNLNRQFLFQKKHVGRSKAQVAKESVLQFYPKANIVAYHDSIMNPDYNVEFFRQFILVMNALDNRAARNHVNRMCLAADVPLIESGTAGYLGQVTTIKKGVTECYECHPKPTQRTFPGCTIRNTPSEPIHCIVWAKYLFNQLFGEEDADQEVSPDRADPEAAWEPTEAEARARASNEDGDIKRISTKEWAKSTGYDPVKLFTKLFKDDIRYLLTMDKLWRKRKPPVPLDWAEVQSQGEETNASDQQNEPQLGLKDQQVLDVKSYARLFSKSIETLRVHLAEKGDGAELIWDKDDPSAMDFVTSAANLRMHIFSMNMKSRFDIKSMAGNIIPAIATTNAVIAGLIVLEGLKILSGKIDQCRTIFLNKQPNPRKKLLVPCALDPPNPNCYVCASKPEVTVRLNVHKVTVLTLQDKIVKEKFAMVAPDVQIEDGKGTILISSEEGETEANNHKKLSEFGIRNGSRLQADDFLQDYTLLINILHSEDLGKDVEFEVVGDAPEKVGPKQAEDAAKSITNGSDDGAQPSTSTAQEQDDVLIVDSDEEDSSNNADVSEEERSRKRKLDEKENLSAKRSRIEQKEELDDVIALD

[9] = target: T4, Zinc finger protein mex-5 (Caenorhabditis elegans, UniProt Q9XUB2); assay: MEX-5/TCR-2 RNA interaction inhibitors, dose response, biochemical, C. elegans, fluorescence polarization (AID 1960)
T4 sequence (Q9XUB2 whole entry): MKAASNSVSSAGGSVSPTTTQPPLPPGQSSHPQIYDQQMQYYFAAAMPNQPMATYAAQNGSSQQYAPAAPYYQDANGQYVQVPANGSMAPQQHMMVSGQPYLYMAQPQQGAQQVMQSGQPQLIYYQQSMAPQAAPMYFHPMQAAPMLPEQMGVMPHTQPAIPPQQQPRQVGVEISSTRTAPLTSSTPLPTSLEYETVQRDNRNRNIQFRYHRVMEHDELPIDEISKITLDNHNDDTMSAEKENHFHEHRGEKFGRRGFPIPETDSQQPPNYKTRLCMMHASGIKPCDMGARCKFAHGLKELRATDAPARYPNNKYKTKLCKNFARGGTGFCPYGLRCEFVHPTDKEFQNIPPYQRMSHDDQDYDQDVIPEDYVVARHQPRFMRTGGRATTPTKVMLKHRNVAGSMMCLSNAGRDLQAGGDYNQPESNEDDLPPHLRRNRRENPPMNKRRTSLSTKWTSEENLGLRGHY

[10] = target: T5, RNA-binding protein pos-1 (Caenorhabditis elegans, UniProt G5EF15); assay: inhibitors of POS-1/mex-3 RNA binding, dose response, biochemical, fluorescence polarization (AID 1964);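 also: purified POS-1 fused to maltose binding protein made in E. coli; potency of compounds blocking POS-1 binding to fluorescent RNA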
T5 sequence (G5EF15 whole entry): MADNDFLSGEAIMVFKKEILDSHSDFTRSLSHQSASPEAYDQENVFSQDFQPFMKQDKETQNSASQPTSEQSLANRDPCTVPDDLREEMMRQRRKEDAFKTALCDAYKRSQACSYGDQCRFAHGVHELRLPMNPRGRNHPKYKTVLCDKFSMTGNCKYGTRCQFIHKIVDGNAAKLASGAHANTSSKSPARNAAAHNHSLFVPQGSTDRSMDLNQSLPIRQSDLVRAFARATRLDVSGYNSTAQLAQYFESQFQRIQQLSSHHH

Vero = assay: cells; format: functional; settings: Chlorocebus sabaeus
[11] = target: T6, Mannose-6-phosphate isomerase (Homo sapiens, UniProt P34949); assay: human PMI inhibitors, high substrate, primary screen, biochemical, fluorescence intensity, high mannose 6-phosphate (AID 1220)
T6 sequence (P34949 whole entry): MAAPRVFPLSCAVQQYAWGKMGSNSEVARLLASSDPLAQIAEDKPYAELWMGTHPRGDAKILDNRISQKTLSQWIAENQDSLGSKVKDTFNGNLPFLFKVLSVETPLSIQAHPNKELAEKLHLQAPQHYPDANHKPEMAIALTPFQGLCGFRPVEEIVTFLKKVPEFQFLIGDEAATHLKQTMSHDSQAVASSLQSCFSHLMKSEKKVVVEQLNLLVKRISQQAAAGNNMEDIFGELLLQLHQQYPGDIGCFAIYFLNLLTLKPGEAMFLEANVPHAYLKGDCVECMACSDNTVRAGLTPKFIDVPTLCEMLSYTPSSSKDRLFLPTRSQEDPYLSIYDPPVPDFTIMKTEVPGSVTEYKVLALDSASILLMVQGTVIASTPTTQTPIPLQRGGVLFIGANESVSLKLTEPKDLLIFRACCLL

[12] = growth suppression of PTEN-null colon cells, dose response, cell-based, HCT116 PTEN knockout (AID 1047); format: functional;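 also: HCT116 colon tumor cells with PTEN knocked out; cells exposed to compound for 60 hours before readout; potency for loss of cell viability measured by luminescence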
[13] = growth suppression of beta-catenin-knockout colon cells, dose response, cell-based, HCT116, human colon tumor (AID 1045); format: functional;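 also: HCT116 colon tumor cells with beta catenin knocked out; cells exposed to compound for 60 hours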
SUMO-activating enzyme [14] = target: T3, SUMO-activating enzyme; assay: SUMOylation inhibitor hit validation, confirmation, SUMOylation inhibitor project, biochemical, AlphaScreen (AID 2018); format: functional
[15] = target: T6, Mannose-6-phosphate isomerase; assay: inhibitors of human PMI, primary screen, biochemical, fluorescence intensity, coupled assay (AID 1209)
H9c2 = assay: cells; format: functional, cell-based; settings: Rattus norvegicus, H9c2, Myocardium;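 also: confirmatory concentration-response retest of ultra-high-throughput screening hits for modulation of myocardial damage; cell death induced by hydrogen peroxide oxidative stress; compound pretreatment for 60 min then peroxide exposure for 2 h; potency is for protecting the cells against peroxide damage rather than for killing them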
[16] = Luminescence Cell-Based Dose Retest to Confirm Inhibitors of Cancer Stem Cells. [Related pubchem assays (depositor defined):AID2717, AID2721]; format: functional; settings: Homo sapiens
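For AC50 in this document: cells exposed to compound for roughly 70 hours or longer before luminescence read.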

CCOC(=O)c1oc2ccc(S(=O)(=O)N3CCC(C)CC3)cc2c1C
EC50 [1]: > 79.4 µM (not active) | EC50 [2]: > 79.4 µM (not active) | EC50 [3]: > 79.4 µM (not active)

Sc1nnc(CSCc2ccc(Cl)cc2Cl)n1-c1ccccc1
EC50 [4]: > 100 µM (active)

O=C(c1ccc2nc(-c3ccco3)c(-c3ccco3)nc2c1)N1CCN(c2ncccn2)CC1
IC50 [5]: 7.82 µM (active) | IC50 (Protein Tat): 7.28 µM (inconclusive) | IC50 (NS3): 11.5 µM (not active)

Cc1scc(C(=O)Nn2cnnc2)c1-c1ccccc1
IC50 (Procathepsin L): > 59.6 µM (not active) | IC50 (Aspartyl aminopeptidase): 3.13 µM (active)

Cc1ccccc1C(=O)Nc1nc2c(C)csc2c(=O)s1
IC50 [6]: > 50 µM (not active) | IC50 [7]: > 50 µM (not active)

CCOC(=O)c1c2ccc(OCC(=O)N/N=C/c3ccc(C)cc3)cc2n2ccccc12
IC50 (SUMO-activating enzyme [8]): 7.01 µM (active) | EC50 [9]: > 300 µM (not active) | EC50 [10]: > 300 µM (not active) | CC50 (Vero): > 25 µM (active) | IC50 [11]: 13.1 µM (active) | EC50 [12]: 5.25 µM (active) | EC50 [13]: 6.24 µM (active) | IC50 (SUMO-activating enzyme [14]): 17.9 µM (active) | IC50 [15]: > 50 µM (not active) | IC50 (H9c2): 40.5 µM (inactive) | AC50 [16]: 5.11 µM (active)
